This passage reports IC50 results from US20260085053A1, “BENZOFURAN DERIVATIVES AS SIK INHIBITORS AND THE USE THEREOF” (BEONE MEDICINES I GMBH, priority 2023, published 2026).

The structures appear in SMILES notation.

In assay [1] the target is T1, SIK1 kinase (aa1-303, Thermo Fisher) (Homo sapiens, UniProt P57059).
T1 construct: SIK1 kinase (aa1-303, Thermo Fisher); purchased Thermo Fisher
The experiment in a line: Biochemical activities determination for SIK1 protein (TR-FRET). Particulars: 110 uM ATP, 0.5 μM STK1 substrate. The procedure, abridged:
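TR-FRET kinase assay with SIK1 (aa1-303), 110 uM ATP, 0.5 μM STK1 substrate and 0-10 μM compound in Tris pH 7.5 with MgCl2, EGTA, DTT, Triton X-100. Enzyme preincubated with compound 60 min, reaction 180 min at room temperature; 665/620 nm ratio after overnight detection; IC50 from four-parameter logistic fit.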
(Time-resolved FRET reads energy transfer from a long-lived donor to a nearby acceptor.)

The target of assay [2] is T2, SIK2 kinase (full length, Thermo Fisher) (Homo sapiens, UniProt Q9H0K1).
T2 construct: SIK2 kinase (full length, Thermo Fisher); purchased Thermo Fisher
T2 sequence (Q9H0K1 whole entry): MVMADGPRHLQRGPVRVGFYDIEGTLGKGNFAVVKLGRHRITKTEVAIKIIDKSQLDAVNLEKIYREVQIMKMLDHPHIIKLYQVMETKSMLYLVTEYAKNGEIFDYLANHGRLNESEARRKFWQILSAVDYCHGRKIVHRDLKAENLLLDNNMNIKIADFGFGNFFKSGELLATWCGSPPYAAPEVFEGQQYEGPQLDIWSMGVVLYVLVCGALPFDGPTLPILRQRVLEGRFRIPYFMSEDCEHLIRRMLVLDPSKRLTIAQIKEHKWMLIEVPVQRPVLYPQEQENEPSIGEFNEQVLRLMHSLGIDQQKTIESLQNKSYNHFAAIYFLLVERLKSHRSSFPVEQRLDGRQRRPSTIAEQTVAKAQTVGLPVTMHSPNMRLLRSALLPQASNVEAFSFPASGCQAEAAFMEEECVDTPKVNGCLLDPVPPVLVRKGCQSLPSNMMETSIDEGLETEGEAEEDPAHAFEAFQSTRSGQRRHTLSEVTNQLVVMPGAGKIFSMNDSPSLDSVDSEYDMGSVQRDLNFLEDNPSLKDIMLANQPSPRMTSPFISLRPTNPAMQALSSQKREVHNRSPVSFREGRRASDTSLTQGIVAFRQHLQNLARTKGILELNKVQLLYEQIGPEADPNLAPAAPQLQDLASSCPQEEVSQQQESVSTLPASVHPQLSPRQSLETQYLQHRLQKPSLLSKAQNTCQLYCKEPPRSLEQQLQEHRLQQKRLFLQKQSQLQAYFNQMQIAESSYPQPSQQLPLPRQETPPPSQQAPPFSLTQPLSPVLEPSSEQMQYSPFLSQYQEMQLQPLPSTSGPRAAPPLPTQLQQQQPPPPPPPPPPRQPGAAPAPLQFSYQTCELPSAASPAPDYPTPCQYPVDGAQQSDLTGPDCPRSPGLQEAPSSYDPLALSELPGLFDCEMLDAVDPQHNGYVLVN
The experiment in a line: Biochemical activities determination for SIK2 protein (TR-FRET). The following applies: 80 uM ATP, 0.5 μM substrate. The procedure, abridged: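 Full-length SIK2 preincubated 60 min with 0–10 μM compound, then reacted 180 min at room temperature with 80 uM ATP and 0.5 μM biotinylated substrate (pH 7.5 Tris/MgCl2 buffer). Phosphorylation detected by TR-FRET (665/620 nm ratio, cryptate antibody/streptavidin-XL665) after overnight incubation; IC50 from four-parameter logistic fit.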

Assay [3] has as its target T3, SIK3 kinase (aa59-365, Thermo Fisher) (Homo sapiens, UniProt Q9Y2K2).
T3 construct: SIK3 kinase (aa59-365, Thermo Fisher); purchased Thermo Fisher
The experiment in a line: Biochemical activities determination for SIK3 protein (TR-FRET). Particulars: 125 uM ATP, 0.5 μM STK1 substrate. The procedure, abridged:
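SIK3 (aa59-365) was preincubated with compound (0-10 μM) for 60 min at room temperature in Tris buffer pH 7.5. The reaction was then started with 125 uM ATP and 0.5 μM STK1 substrate and run 180 min at room temperature. Phospho-substrate was detected by HTRF (665/620 nm ratio), and IC50 came from a four-parameter logistic fit.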

T3 sequence (Q9Y2K2 59-365): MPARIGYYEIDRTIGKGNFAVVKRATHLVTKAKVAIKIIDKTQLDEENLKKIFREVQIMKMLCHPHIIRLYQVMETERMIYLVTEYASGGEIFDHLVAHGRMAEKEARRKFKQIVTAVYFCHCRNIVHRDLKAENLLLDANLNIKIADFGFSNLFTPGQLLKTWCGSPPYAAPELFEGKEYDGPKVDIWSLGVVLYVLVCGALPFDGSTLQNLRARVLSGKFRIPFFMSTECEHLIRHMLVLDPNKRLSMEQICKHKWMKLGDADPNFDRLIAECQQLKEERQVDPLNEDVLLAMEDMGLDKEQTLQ
T1 sequence (P57059 1-303): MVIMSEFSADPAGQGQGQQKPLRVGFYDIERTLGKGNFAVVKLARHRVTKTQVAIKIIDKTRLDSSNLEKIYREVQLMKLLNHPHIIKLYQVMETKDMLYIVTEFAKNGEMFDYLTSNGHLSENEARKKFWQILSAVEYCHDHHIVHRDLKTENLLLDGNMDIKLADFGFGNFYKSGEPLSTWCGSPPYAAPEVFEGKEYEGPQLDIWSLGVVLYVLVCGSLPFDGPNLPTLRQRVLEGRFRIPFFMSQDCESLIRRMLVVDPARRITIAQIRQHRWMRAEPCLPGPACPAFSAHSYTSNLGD

As usually defined, the IC50 is the concentration needed to halve the response being measured. Consider `COc1cc(-c2coc3cc(-c4cnn(C(C)C)c4)ccc23)cc2c1C(=O)N(CC(F)(F)F)CC2` [Example 3, 6-(6-(1-isopropyl-1H-pyrazol-4-yl)benzofuran-3-yl)-8-methoxy-2-(2,2,2-trifluoroethyl)-3,4-dihydroisoquinolin-1 (2H)-one], for which the concentration for half-maximal inhibition (IC50) was 476 nM in assay [1], 28 nM in assay [2] and 42 nM in assay [3].
With `COc1cc(-c2coc3cc(-c4cnn(C5CC5)c4)ccc23)cc2c1C(=O)N(CC(F)(F)F)CC2` [Example 4, 6-(6-(1-cyclopropyl-1H-pyrazol-4-yl)benzofuran-3-yl)-8-methoxy-2-(2,2,2-trifluoroethyl)-3,4-dihydroisoquinolin-1 (2H)-one], the 50% inhibitory concentration (IC50) in assay [1] was found to be 728 nM; in assay [2] it was 37 nM; in assay [3], 53 nM.
Regarding `COc1cc(-c2coc3cc(-c4cc(C)n[nH]4)ccc23)cc2c1C(=O)N(CC(F)(F)F)CC2` [Example 5, 8-methoxy-6-(6-(3-methyl-1H-pyrazol-5-yl)benzofuran-3-yl)-2-(2,2,2-trifluoroethyl)-3,4-dihydroisoquinolin-1 (2H)-one], the concentration for half-maximal inhibition (IC50) was determined as 538 nM in assay [1], 33 nM in assay [2] and 41 nM in assay [3].
The corresponding values for `CCOc1cncc(-c2ccc3c(-c4cc5c(c(OC)c4)C(=O)N(CC(F)(F)F)CC5)coc3c2)c1` [Example 6, 6-(6-(5-ethoxypyridin-3-yl)benzofuran-3-yl)-8-methoxy-2-(2,2,2-trifluoroethyl)-3,4-dihydroisoquinolin-1 (2H)-one] are more than 10000 nM, 7460 nM and 1430 nM.
For the compound `COc1cc(-c2coc3cc(-c4cn(C)cn4)ccc23)cc2c1C(=O)N(CC(F)(F)F)CC2` [Example 7, 8-methoxy-6-(6-(1-methyl-1H-imidazol-4-yl)benzofuran-3-yl)-2-(2,2,2-trifluoroethyl)-3,4-dihydroisoquinolin-1 (2H)-one], the IC50 in assay [1] turned out to be 671 nM; in assay [2] it was 14 nM; in assay [3] it was 60 nM.
In the case of `COc1cc(-c2coc3cc(-c4ccc(C)nn4)ccc23)cc2c1C(=O)N(CC(F)(F)F)CC2` [Example 8, 8-methoxy-6-(6-(6-methylpyridazin-3-yl)benzofuran-3-yl)-2-(2,2,2-trifluoroethyl)-3,4-dihydroisoquinolin-1 (2H)-one], the IC50 in assay [1] was more than 10000 nM; in assay [2], 197 nM; in assay [3], 304 nM.
In the case of `COc1ccc(-c2ccc3c(-c4cc5c(c(OC)c4)C(=O)N(CC(F)(F)F)CC5)coc3c2)cn1` [Example 9, 8-methoxy-6-(6-(6-methoxypyridin-3-yl)benzofuran-3-yl)-2-(2,2,2-trifluoroethyl)-3,4-dihydroisoquinolin-1 (2H)-one], the IC50 in assay [1] is more than 10000 nM; in assay [2], 296 nM; in assay [3], 334 nM.
Turning to `COc1cc(-c2coc3cc(-c4cnnc(C)c4)ccc23)cc2c1C(=O)N(CC(F)(F)F)CC2` [Example 10, 8-methoxy-6-(6-(6-methylpyridazin-4-yl)benzofuran-3-yl)-2-(2,2,2-trifluoroethyl)-3,4-dihydroisoquinolin-1 (2H)-one], the half-inhibitory concentration (IC50) in assay [1] is more than 10000 nM; in assay [2], 418 nM; in assay [3] it was 187 nM.
Consider `COc1cc(-c2coc3cc(-c4cnn(C)c4)cc(F)c23)cc2c1C(=O)N(CC(F)(F)F)CC2` [Example 11, 6-(4-fluoro-6-(1-methyl-1H-pyrazol-4-yl)benzofuran-3-yl)-8-methoxy-2-(2,2,2-trifluoroethyl)-3,4-dihydroisoquinolin-1 (2H)-one], for which the IC50 was 1550 nM in assay [1], 49 nM in assay [2] and 155 nM in assay [3].
Consider `COc1cc(-c2coc3cc(-c4cnn(C)c4)c(F)cc23)cc2c1C(=O)N(CC(F)(F)F)CC2` [Example 12, 6-(5-fluoro-6-(1-methyl-1H-pyrazol-4-yl)benzofuran-3-yl)-8-methoxy-2-(2,2,2-trifluoroethyl)-3,4-dihydroisoquinolin-1 (2H)-one], for which the IC50 in assay [1] is 2280 nM; in assay [2], 59 nM; in assay [3] it was 186 nM.
For the compound `Cn1cc(-c2ccc3c(-c4cc5c(c(OC(F)F)c4)C(=O)N(CC(F)(F)F)CC5)coc3c2)cn1` [Example 13, 8-(difluoromethoxy)-6-(6-(1-methyl-1H-pyrazol-4-yl)benzofuran-3-yl)-2-(2,2,2-trifluoroethyl)-3,4-dihydroisoquinolin-1 (2H)-one], the IC50 was found to be 647 nM in assay [1], 25 nM in assay [2] and 54 nM in assay [3].
`Cc1ccc(-c2ccc3c(-c4cc5c(c(OC(F)F)c4)C(=O)N(CC(F)(F)F)CC5)coc3c2)nn1` [Example 14, 8-(difluoromethoxy)-6-(6-(6-methylpyridazin-3-yl)benzofuran-3-yl)-2-(2,2,2-trifluoroethyl)-3,4-dihydroisoquinolin-1 (2H)-one]: the results for the IC50 in assay [1], in assay [2] and in assay [3] were more than 10000 nM, 310 nM and 329 nM, respectively.
